Tested on: HIV transcripts (TAR, LLTR, Pol, PolyA, TatRev)
Experiment: Baseline HIV transcription without activation, PBMCs from ART-suppressed PWH, 24 hours
Format: cell-based
Details: no activation; for 5′ elongated HIV transcripts without activation compared to DMSO / Completed HIV transcripts without activation compared to DMSO / HIV splicing (TatRev/PolyA) without activation / HIV transcription levels in the absence of T cell activation (in words) / Multiply spliced HIV transcripts without activation, median relative to DMSO: 24 hours; for HIV splicing (TatRev/PolyA) without activation: not statistically significant; for LLTR HIV transcripts (DMSO = 100) / Pol HIV transcripts (DMSO = 100) / PolyA HIV transcripts (DMSO = 100) / Tat-Rev HIV transcripts (DMSO = 100) / TAR HIV transcripts (DMSO = 100) / PolyA/LLTR ratio (DMSO = 1) / TatRev/PolyA ratio (DMSO = 1) / LLTR/TAR ratio (DMSO = 1): ruxolitinib 4μM, dinaciclib 8nM, AZD4573 8nM, KRIBB11 2.5μM; for LLTR HIV transcripts (DMSO = 100) / Pol HIV transcripts (DMSO = 100) / PolyA HIV transcripts (DMSO = 100) / Tat-Rev HIV transcripts (DMSO = 100) / TAR HIV transcripts (DMSO = 100): pladienolide B 10nM; for HIV transcription levels in the absence of T cell activation (in words) / Multiply spliced HIV transcripts without activation, median relative to DMSO: at least 3 PWH; for PolyA/LLTR ratio (DMSO = 1) / TatRev/PolyA ratio (DMSO = 1) / LLTR/TAR ratio (DMSO = 1): pladienolide B
Protocol: For a selection of the compounds, we evaluated the ability to reduce baseline HIV transcription without activation. PBMCs were cultured in the presence of individual drugs in DMSO or DMSO alone as a control and harvested after 24 hours. For each drug, we tested PBMCs from at least 3 PWH, as indicated in Supplemental Figure 5B. […] Likewise, pladienolide B appeared to reduce the level of multiply spliced transcripts (33%, Supplemental Figure 5, A and B).
PBMCs were isolated from fresh venous blood from 16 ART-suppressed HIV-infected study participants using Ficoll density gradient centrifugation. The cells were seeded at 6 × 10^6 cells/well and cultured with antiretrovirals (nevirapine and indinavir) to prevent new infection. On the next day, PBMCs were activated with anti-CD3/CD28–coated beads (Invitrogen) in the presence of 20 U/mL IL-2 and individual drugs in DMSO or DMSO alone as a control. Since we were limited in the PBMC yield per study participant, different study participants were used for different experiments (such as the initial screen, dose response, different time points, and studies in activated vs. unstimulated cells). In addition, the yields of PBMCs were sometimes insufficient to test all drugs for a given question or experiment.
Total cellular DNA and RNA were extracted in parallel using Trireagent (Molecular Research Center) according to the manufacturer’s instructions, except for study participants 2147 and 2461 (Figure 4), for whom DNA and RNA were extracted using the QIAGEN AllPrep DNA/RNA/miRNA Universal Kit with on-column DNase I treatment of the RNA and the manufacturer’s modification to enhance recovery of short transcripts. RNA and DNA concentrations were measured using UV spectrophotometry (NanoDrop One, Thermo Fisher Scientific). Total initiated HIV (TAR) transcripts were quantified by a 3-step polyadenylation RT-ddPCR as described previously ([8], [84]). HIV 5′ elongated (LLTR), midtranscribed (Pol), completed (PolyA), and multiply spliced (TatRev) transcripts were quantified by a 2-step RT-ddPCR as previously described ([8]). The levels of each HIV transcript were normalized to 1 μg of total cellular RNA and expressed as a percentage of the (activated) DMSO control. To quantify virion-associated RNA in supernatant, RNA was extracted from 400 μL supernatant using Trireagent-LS (Molecular Research Center) according to the manufacturer’s instructions. Levels of U3-polyadenylated HIV RNA were measured in the supernatant by RT-ddPCR, normalized to copies/mL, and expressed as a percentage of the activated DMSO. For measuring the HIV infection frequency at day 6, the HIV DNA U3-U5 LTR region was quantified by using ddPCR as described previously ([8]). HIV DNA copies were normalized to cell numbers according to the mass of DNA input per well (calculated from the DNA concentration and input volume) ([85]).
Figure S5. CDK-inhibitors appear to decrease baseline HIV splicing even in the absence of T cell activation. Each drug was tested in PBMCs from at least three ART-suppressed study participants and PBMCs were aliquoted into wells at 6x10^6 cells/well. The cells were cultured with antiretrovirals but without activation in the presence of individual drugs in (1 picture or pasted object on this page, not shown here)
DMSO or DMSO alone as control. After 24h, total RNA was extracted and the progression through different stages of HIV transcription was quantified by measuring the levels of initiated (TAR), 5’ elongated (LLTR), mid-transcribed/unspliced (Pol), completed (PolyA) and multiply spliced (TatRev) HIV transcripts. A-B) The levels of all HIV transcripts were quantified, normalized to 1 µg of total cellular RNA, and expressed as a percent of the DMSO control (% of DMSO). A) Medians are shown, as well as the values of the individual study participants in different colors. B) The medians from panel A) are presented. The effect of each drug on the different transcripts was studied in three to six study participants, as […]

[1] = participant 5557 (DMSO cell empty)

| Compound | HIV splicing (TatRev/PolyA) without activation | LLTR HIV transcripts (DMSO = 100) (participant 156) | Pol HIV transcripts (DMSO = 100) (participant 156) | PolyA HIV transcripts (DMSO = 100) (participant 156) | Tat-Rev HIV transcripts (DMSO = 100) (participant 156) | LLTR HIV transcripts (DMSO = 100) (participant 163) | Pol HIV transcripts (DMSO = 100) (participant 163) | PolyA HIV transcripts (DMSO = 100) (participant 163) | Tat-Rev HIV transcripts (DMSO = 100) (participant 163) | LLTR HIV transcripts (DMSO = 100) (participant 1379) | Pol HIV transcripts (DMSO = 100) (participant 1379) | PolyA HIV transcripts (DMSO = 100) (participant 1379) | TAR HIV transcripts (DMSO = 100) (participant 1379) | LLTR HIV transcripts (DMSO = 100) (participant 2027) | Pol HIV transcripts (DMSO = 100) (participant 2027) | PolyA HIV transcripts (DMSO = 100) (participant 2027) | TAR HIV transcripts (DMSO = 100) (participant 2027) | PolyA/LLTR ratio (DMSO = 1) (participant 156) | TatRev/PolyA ratio (DMSO = 1) (participant 156) | PolyA/LLTR ratio (DMSO = 1) (participant 163) | further results |
| --- | --- | --- | --- | --- | --- | --- | --- | --- | --- | --- | --- | --- | --- | --- | --- | --- | --- | --- | --- | --- | --- |
| CCc1cnn2c(NCc3ccc[n+]([O-])c3)cc(N3CCCC[C@H]3CCO)nc12 [dinaciclib] | severely reduce | 121.36 | 49.08 | 67.47 | 0 | 142.94 | 207.39 | 173.7 | 0 | 40.3 | 0 | 20.95 | 228.89 | 82.61 | 131.38 | 193.29 | 248.84 |  |  |  | 5′ elongated HIV transcripts without activation compared to DMSO: did not reduce; Completed HIV transcripts without activation compared to DMSO: did not reduce; LLTR HIV transcripts (DMSO = 100) (participant 2750): 83.98; Pol HIV transcripts (DMSO = 100) (participant 2750): 102.74; PolyA HIV transcripts (DMSO = 100) (participant 2750): 91.99; TAR HIV transcripts (DMSO = 100) (participant 2750): 108.94; Tat-Rev HIV transcripts (DMSO = 100) (participant 2750): 0; LLTR HIV transcripts (DMSO = 100) [1]: 59.59; Pol HIV transcripts (DMSO = 100) [1]: 0; TAR HIV transcripts (DMSO = 100) (participant 5557): 176.06 |
| N#CC[C@H](C1CCCC1)n1cc(-c2ncnc3[nH]ccc23)cn1 [ruxolitinib] |  | 91.78 | 118.18 | 108.3 | 167.91 | 148.94 | 91.9 | 183.43 | 0 | 49.44 | 31.32 | 9.4 | 170 | 57.36 | 74.54 | 109.96 | 90.7 |  |  |  | HIV transcription levels in the absence of T cell activation (in words): little effect |
| pladienolide B | severely reduce | 85.34 | 133.38 | 150.05 | 66.69 | 92.55 | 107.42 | 106.43 | 0 | 18.62 | 16.13 | 25.8 | 228.89 | 81.44 | 43.71 | 90.63 | 125.58 | 1.758 | 0.4444 | 1.15 | Multiply spliced HIV transcripts without activation, median relative to DMSO: 33%; TatRev/PolyA ratio (DMSO = 1) (participant 163): 0; LLTR/TAR ratio (DMSO = 1) (participant 1379): 0.08133; PolyA/LLTR ratio (DMSO = 1) (participant 1379): 1.3861; LLTR/TAR ratio (DMSO = 1) (participant 2027): 0.6485; PolyA/LLTR ratio (DMSO = 1) (participant 2027): 1.113 |
| CC(=O)N[C@@H]1CCC[C@H](C(=O)Nc2cc(-c3cnn4c3CC(C)(C)C4)c(Cl)cn2)C1 [AZD4573] | severely reduce | 37.81 | 28.11 | 93.77 | 0 | 69.35 | 112.58 | 122.94 | 0 | 41.73 | 110.74 | 43.19 | 286.67 | 76.52 | 30.35 | 87.13 | 211.63 | 2.48 | 0 | 1.773 | 5′ elongated HIV transcripts without activation compared to DMSO: did not reduce; Completed HIV transcripts without activation compared to DMSO: did not reduce; Multiply spliced HIV transcripts without activation, median relative to DMSO: 0%; TatRev/PolyA ratio (DMSO = 1) (participant 163): 0; LLTR/TAR ratio (DMSO = 1) (participant 1379): 0.1456; PolyA/LLTR ratio (DMSO = 1) (participant 1379): 1.035; LLTR/TAR ratio (DMSO = 1) (participant 2027): 0.3616; PolyA/LLTR ratio (DMSO = 1) (participant 2027): 1.1386; LLTR HIV transcripts (DMSO = 100) (participant 2750): 134.54; Pol HIV transcripts (DMSO = 100) (participant 2750): 202.4; PolyA HIV transcripts (DMSO = 100) (participant 2750): 70.63; TAR HIV transcripts (DMSO = 100) (participant 2750): 206.7; Tat-Rev HIV transcripts (DMSO = 100) (participant 2750): 0; LLTR/TAR ratio (DMSO = 1) (participant 2750): 0.6509; PolyA/LLTR ratio (DMSO = 1) (participant 2750): 0.525; TatRev/PolyA ratio (DMSO = 1) (participant 2750): 0; LLTR HIV transcripts (DMSO = 100) [1]: 170.71; Pol HIV transcripts (DMSO = 100) [1]: 0; TAR HIV transcripts (DMSO = 100) (participant 5557): 348.03; LLTR/TAR ratio (DMSO = 1) (participant 5557): 0.57 |
| CNc1ccc([N+](=O)[O-])c(Nc2ccc3[nH]ncc3c2)n1 [KRIBB11] |  | 90.95 | 85.77 | 144.03 | 735.63 | 72.79 | 89.89 | 74.5 | 0 |  |  |  |  | 71.57 | 64.26 | 97.36 | 144.19 | 1.584 | 5.108 | 1.0234 | HIV transcription levels in the absence of T cell activation (in words): little effect; TatRev/PolyA ratio (DMSO = 1) (participant 163): 0; LLTR/TAR ratio (DMSO = 1) (participant 2027): 0.4964; PolyA/LLTR ratio (DMSO = 1) (participant 2027): 1.36 |
